Tested on: acetic acid induced writhing in ICR mice
Experiment: acetic acid induced writhing pain model in ICR mice
Assay type: in vivo, mouse
Settings: for writhing frequency: 30 mg/kg single oral administration 1 h before 0.6% acetic acid i.p., 20 minutes observation, compared with G1 model group, FIG. 6; for efficacy compared with aspirin: 30 mg/kg single oral administration vs 200 mpk of aspirin
Description: The pharmacological effect of compounds prepared in some examples of the present invention on an acetic acid induced writhing pain model in ICR mice was investigated.
The acetic acid writhing pain model in mice is a classic pharmacological model for evaluating the treatment of drugs for visceral pain and inflammatory pain.
• Animal species and strains: ICR mice • Medical treatment history: None • Gender, age, and weight: Male, 8 weeks old, 20-25 g • Breeder/Supplier: Shanghai SLAC Laboratory Animal Co., Ltd • Adaptation period: no less than 7 days • Room: Regular level room • Room temperature: 19-26° C. • Relative humidity: 40-70% • Lighting cycle: fluorescent lighting, 12 hours of illumination (08:00-20:00) and 12 hours of no illumination • Animal feeding: 5 animals/cage divided by group • Food: Free intake (irradiated feed, Shanghai SLAC Laboratory Animal Co., Ltd, China) • Water: Free intake (Mol Ultrapure Water System filtered municipal tap water)
A total of 70 mice were introduced from Shanghai SLAC Laboratory Animal Co., Ltd. The animals were SPF grade and purchased at approximately 7 weeks old.
Animals are randomly assigned to each treatment group according to the weight using the BioBook randomization function to achieve an approximate average weight for each group and reduce inter group bias.
3.1 Within 12 hours before use, a glacial acetic acid solution with a mass volume fraction of 0.6% was prepared with 0.9% physiological saline.
3.2. Administration treatment: G1 group animals were orally administered 0.9% physiological saline; G2-G6 were specifically administered the compounds of the present invention referred to the specific dosage regimen in Table 9.
3.3. Modeling treatment: G1 group animals were administered 0.9% physiological saline by gavage, and after 1 hour, 0.6% glacial acetic acid was injected intraperitoneally to induce pain response (10 ml/kg). G2-G8 group animals were injected intraperitoneally with 0.6% glacial acetic acid to induce pain response (10 ml/kg) after different groups were administered according to the regimen designed in Table 9.
3.4 Measurement: The weight of all mice was recorded before modeling treatment. A torsion test was recorded immediately after acetic acid treatment. The behavioral observation period lasted for 20 minutes. Writhes were counted by a single preson (one standard writhe includes abdominal muscle contraction, muscle extension, and hind limb extension). After testing, the animals were euthanized with CO2.
3.5 Experimental observation: Animal health observation and general response to drug treatment were conducted daily. All abnormal health and behavioral behaviors were recorded.
The experimental data was calculated as mean±standard error. Statistical analysis was performed using Graphpad Prism, SPSS, or Sigmaplot software. The specific data is presented in the form of graphs. P<0.05 is considered to have statistical differences.

| Compound | writhing frequency | efficacy compared with aspirin |
| --- | --- | --- |
| NCc1ccc(NS(=O)(=O)c2ccsc2)c(-c2ccco2)c1 [ID-5] | significantly reduce | basically equivalent to that of 200 mpk of aspirin |
| CNCc1ccc(NS(=O)(=O)c2ccsc2)c(-c2ccco2)c1 [IA-30] | significantly reduce | basically equivalent to that of 200 mpk of aspirin |
| CNCc1ccc(-c2nccs2)c(NS(=O)(=O)c2ccccc2)c1 [IA-51, N-(5-((methylamino)methyl)-2-(thiazol-2-yl)phenyl)benzenesulfonamide] | significantly reduce | basically equivalent to that of 200 mpk of aspirin |
| CNCc1ccc(-c2cc[nH]n2)c(NS(=O)(=O)c2ccccc2)c1 [IA-55, N-(5-((methylamino)methyl)-2-(1H-pyrazol-3-yl)phenyl)benzenesulfonamide] | significantly reduce | basically equivalent to that of 200 mpk of aspirin |

Reference: patent US20240262812A1, “N-SUBSTITUTED PHENYLSULFONAMIDE COMPOUND AND USE THEREOF” (Shanghai Leado Pharmatech Co., Ltd., priority 2021, published 2024)
